Counter-ions that a name gives are not always drawn.
Molecular target: T1, His6-AspH315–758 (human aspartate/asparagine-β-hydroxylase, AspH) (Homo sapiens, UniProt Q12797)
T1 construct: N-Terminally His6-tagged human AspH315–758 (His6-AspH315–758) was produced in E. coli BL21 (DE3) cells; made in house; host or cells: E. coli BL21 (DE3), pET-28a(+) vector
T1 sequence (Q12797 315-758): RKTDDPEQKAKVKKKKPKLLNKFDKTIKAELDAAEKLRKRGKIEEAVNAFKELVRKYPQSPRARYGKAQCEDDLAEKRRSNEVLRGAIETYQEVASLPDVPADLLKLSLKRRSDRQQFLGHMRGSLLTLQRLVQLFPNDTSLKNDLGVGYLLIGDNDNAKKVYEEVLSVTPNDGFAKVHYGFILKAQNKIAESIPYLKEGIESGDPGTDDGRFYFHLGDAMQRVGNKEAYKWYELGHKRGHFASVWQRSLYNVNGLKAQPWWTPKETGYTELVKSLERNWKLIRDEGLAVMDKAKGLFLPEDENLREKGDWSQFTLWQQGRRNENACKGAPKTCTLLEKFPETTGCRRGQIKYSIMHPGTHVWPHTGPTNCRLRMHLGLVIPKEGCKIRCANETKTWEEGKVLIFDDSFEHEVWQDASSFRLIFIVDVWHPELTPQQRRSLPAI
Experiment: SPE-MS AspH inhibition assay (LOPAC screen at fixed 20 μM and IC50 dose-response), hydroxylation of cyclic peptide hFX-CP101–119
Format: biochemical
Settings: not given

Row | Structure (SMILES) | Plate 1 (% conversion) [%] | Plate 1 (% inhibition) [%] | Plate 3 (% conversion) [%] | Plate 2 (% conversion) [%]
1 | Cl.c1ccc2sc(C3(N4CCCCC4)CCCCC3)cc2c1 [BTCP hydrochloride] | 41.13 | -15.64 |  | 
2 | C=CC[N+](C)(C)c1ccc(CCC(=O)CCc2ccc([N+](C)(C)CC=C)cc2)cc1.[Br-].[Br-] [BW 284c51] | 38.38 | -7.47 |  | 
3 | CC(N)Cc1c[nH]c2ccc(OCc3cccs3)cc12 (centres unmarked) [BW 723C86] |  |  | 36.52 | 
4 | CC(C)(C)c1ccc(S(=O)(=O)/C=C/C#N)cc1 [Bay 11-7085] | 32.72 | 9.38 |  | 
5 | Cl.Cn1c(CCCC(=O)O)nc2cc(N(CCCl)CCCl)ccc21 [Bendamustine hydrochloride] |  |  |  | 39.38
6 | C=CCc1ccccc1OCC(O)CNC1(C)CCC(C(C)(C)NC(=O)CBr)CC1 (centres unmarked) [Bromoacetyl alprenolol menthane] | 65.73 | -88.92 |  | 
7 | C[N+](C)(C)CCOC(=O)CBr.[Br-] [Bromoacetylcholine bromide] | 36.25 | -1.12 |  | 
8 | CC(NC(C)(C)C)C(=O)c1cccc(Cl)c1 (centres unmarked) [Bupropion hydrochloride] | 38.01 | -6.38 |  | 
9 | O=C1CC2(CCCC2)CC(=O)N1CCCCN1CCN(c2ncccn2)CC1 [Buspirone hydrochloride] | 40.40 |  |  | 

Same assay, conditions: 20 µM

Row | Structure (SMILES) | Plate 2 (% inhibition) [%]
10 | Cl.Cn1c(CCCC(=O)O)nc2cc(N(CCCl)CCCl)ccc21 [Bendamustine hydrochloride] | -10.22

Same assay, conditions: AspH activity; fixed compound concentration 20 μM; initial LOPAC screen; 0.5%v/v DMSO; read-out: Inhibition at 20 µM [%]

Row | Structure (SMILES) | inhibition at 20 µM [%]
11 | O=C(/C=C/c1ccc(O)cc1)CC(=O)/C=C/c1ccc(O)cc1 [Bisdemethoxycurcumin, reference compound] | 99.7

Same assay, conditions: LOPAC Plate 4, compound at 20 uM, substrate conversion

Row | Structure (SMILES) | % conversion [%]
12 | Cc1ccc(S(=O)(=O)/C=C/C#N)cc1 [Bay 11-7082] | 24.61
13 | CC(O)(CS(=O)(=O)c1ccc(F)cc1)C(=O)Nc1ccc(C#N)c(C(F)(F)F)c1 (centres unmarked) [Bicalutamide (CDX)] | 24.70
14 | CCN[C@H]1CN(CCCOC)S(=O)(=O)c2sc(S(N)(=O)=O)cc21 [Brinzolamide] | 38.63

Same assay, conditions: LOPAC Plate 4, compound at 20 uM; read-out: % inhibition

Row | Structure (SMILES) | inhibition at 20 µM [%]
15 | CCN[C@H]1CN(CCCOC)S(=O)(=O)c2sc(S(N)(=O)=O)cc21 [Brinzolamide] | -6.32

Same assay, conditions: LOPAC compound at 20uM, plate 2; conversion of substrate peptide

Row | Structure (SMILES) | Plate 2 (% conversion) [%]
16 | C=C(c1ccc(C(=O)O)cc1)c1cc2c(cc1C)C(C)(C)CCC2(C)C [Bexarotene] | 33.95

Same assay, conditions: LOPAC compound at 20uM, plate 2; normalised to DMSO and 2,4-PDCA controls; read-out: Plate 2 (% inhibition)

Row | Structure (SMILES) | inhibition at 20 µM [%]
17 | C=C(c1ccc(C(=O)O)cc1)c1cc2c(cc1C)C(C)(C)CCC2(C)C [Bexarotene] | 6

Same assay, conditions: LOPAC compound at fixed 20 uM; plate 1, normalised to DMSO and 2,4-PDCA controls

Row | Structure (SMILES) | Plate 1 (% inhibition) [%]
18 | N#Cc1cc([N+](=O)[O-])c2sc(C(N)=O)[n+]([O-])c2c1 [BTO-1] | -2.18
19 | Cl.c1ccc2nc(C3=NCCN3)ccc2c1 [BU224 hydrochloride] | -5.25
20 | CC(/C=C/c1cccc(Oc2ccc(F)cc2)c1)N(O)C(N)=O (centres unmarked) [BWB70C] | -3.19
21 | C[C@H]1C[C@H]2[C@@H]3CCC4=CC(=O)C=C[C@]4(C)[C@@]3(Cl)[C@@H](O)C[C@]2(C)[C@@]1(O)C(=O)CO [Beclomethasone] | -10.42
22 | c1ccc2cc(-c3ncc[nH]3)ccc2c1 [Benazoline oxalate] | 77.21
23 | COc1cccc(OC)c1OCCNCC1CSc2ccccc2O1 (centres unmarked) [Benoxathian hydrochloride] | -17.92
24 | NC(=O)c1ccccc1 [Benzamide] | -4.66
25 | N=C(N)c1ccccc1 [Benzamidine hydrochloride] | -1.42
26 | NC(=NCc1ccccc1)NC(=O)c1nc(Cl)c(N)nc1N [Benzamil hydrochloride] | 8.35
27 | CN1[C@@H]2CC[C@H]1C[C@@H](OC(c1ccccc1)c1ccccc1)C2 [Benztropine mesylate] | -9.74
28 | CC(C)COCC(CN(Cc1ccccc1)c1ccccc1)N1CCCC1 (centres unmarked) [Bepridil hydrochloride] | 94.47
29 | CC(C)C[C@H](NC(=O)[C@@H](O)[C@H](N)Cc1ccccc1)C(=O)O [Bestatin hydrochloride] | -4.72
30 | C[N+](C)(C)CC=O [Betaine aldehyde chloride] | -3.10
31 | C[N+](C)(C)CC(=O)O [Betaine hydrochloride] | -4.44
32 | C[C@H]1C[C@H]2[C@@H]3CCC4=CC(=O)C=C[C@]4(C)[C@@]3(F)[C@@H](O)C[C@]2(C)[C@@]1(O)C(=O)CO [Betamethasone] | -5.12
33 | CC(C)NCC(O)COc1ccc(CCOCC2CC2)cc1 (centres unmarked) [Betaxolol hydrochloride] | -3.28
34 | CC(C[N+](C)(C)C)OC(N)=O (centres unmarked) [Bethanechol chloride] | -8.85
35 | OC(CCN1CCCCC1)(c1ccccc1)C1CC2C=CC1C2 (centres unmarked) [Biperiden hydrochloride] | -10.34
36 | COc1cc(Nc2c(C#N)cnc3cc(OCCCN4CCN(C)CC4)c(OC)cc23)c(Cl)cc1Cl [Bosutinib] | -79.17
37 | Cc1c(-c2ccc(-c3ccccc3F)cc2)nc2ccc(F)cc2c1C(=O)[O-].[Na+] [Brequinar sodium salt hydrate] | 11.82
38 | CCCC1O[C@@H]2C[C@H]3[C@@H]4CCC5=CC(=O)C=C[C@]5(C)[C@H]4[C@@H](O)C[C@]3(C)[C@]2(C(=O)CO)O1 (some centres unmarked) [Budesonide] | -13.14
39 | CCCCNc1cc(C(=O)O)cc(S(N)(=O)=O)c1Oc1ccccc1 [Bumetanide] | 3.08
40 | O=C1CC2(CCCC2)CC(=O)N1CCCCN1CCN(c2ncccn2)CC1 [Buspirone hydrochloride] | -13.49
41 | NC(=O)c1cc(N2CC2)c([N+](=O)[O-])cc1[N+](=O)[O-] [CB 1954] | 4.86
42 | Clc1nccc2c1ccc1ccccc12 [CBIQ] | -13.62

Same assay, conditions: LOPAC compound at fixed 20 uM; substrate conversion, plate 1

Row | Structure (SMILES) | Plate 1 (% conversion) [%]
43 | N#Cc1cc([N+](=O)[O-])c2sc(C(N)=O)[n+]([O-])c2c1 [BTO-1] | 36.60
44 | Cl.c1ccc2nc(C3=NCCN3)ccc2c1 [BU224 hydrochloride] | 37.63
45 | CC(/C=C/c1cccc(Oc2ccc(F)cc2)c1)N(O)C(N)=O (centres unmarked) [BWB70C] | 36.94
46 | C[C@H]1C[C@H]2[C@@H]3CCC4=CC(=O)C=C[C@]4(C)[C@@]3(Cl)[C@@H](O)C[C@]2(C)[C@@]1(O)C(=O)CO [Beclomethasone] | 39.37
47 | c1ccc2cc(-c3ncc[nH]3)ccc2c1 [Benazoline oxalate] | 9.94
48 | COc1cccc(OC)c1OCCNCC1CSc2ccccc2O1 (centres unmarked) [Benoxathian hydrochloride] | 41.89
49 | NC(=O)c1ccccc1 [Benzamide] | 37.44
50 | N=C(N)c1ccccc1 [Benzamidine hydrochloride] | 36.35
51 | NC(=NCc1ccccc1)NC(=O)c1nc(Cl)c(N)nc1N [Benzamil hydrochloride] | 33.07
52 | CN1[C@@H]2CC[C@H]1C[C@@H](OC(c1ccccc1)c1ccccc1)C2 [Benztropine mesylate] | 39.14
53 | CC(C)COCC(CN(Cc1ccccc1)c1ccccc1)N1CCCC1 (centres unmarked) [Bepridil hydrochloride] | 4.14
54 | CC(C)C[C@H](NC(=O)[C@@H](O)[C@H](N)Cc1ccccc1)C(=O)O [Bestatin hydrochloride] | 37.46
55 | C[N+](C)(C)CC=O [Betaine aldehyde chloride] | 36.91
56 | C[N+](C)(C)CC(=O)O [Betaine hydrochloride] | 37.36
57 | C[C@H]1C[C@H]2[C@@H]3CCC4=CC(=O)C=C[C@]4(C)[C@@]3(F)[C@@H](O)C[C@]2(C)[C@@]1(O)C(=O)CO [Betamethasone] | 37.59
58 | CC(C)NCC(O)COc1ccc(CCOCC2CC2)cc1 (centres unmarked) [Betaxolol hydrochloride] | 36.97
59 | CC(C[N+](C)(C)C)OC(N)=O (centres unmarked) [Bethanechol chloride] | 38.85
60 | OC(CCN1CCCCC1)(c1ccccc1)C1CC2C=CC1C2 (centres unmarked) [Biperiden hydrochloride] | 39.34
61 | COc1cc(Nc2c(C#N)cnc3cc(OCCCN4CCN(C)CC4)c(OC)cc23)c(Cl)cc1Cl [Bosutinib] | 62.46
62 | Cc1c(-c2ccc(-c3ccccc3F)cc2)nc2ccc(F)cc2c1C(=O)[O-].[Na+] [Brequinar sodium salt hydrate] | 31.90
63 | CCCC1O[C@@H]2C[C@H]3[C@@H]4CCC5=CC(=O)C=C[C@]5(C)[C@H]4[C@@H](O)C[C@]3(C)[C@]2(C(=O)CO)O1 (some centres unmarked) [Budesonide] | 40.29
64 | CCCCNc1cc(C(=O)O)cc(S(N)(=O)=O)c1Oc1ccccc1 [Bumetanide] | 34.84
65 | NC(=O)c1cc(N2CC2)c([N+](=O)[O-])cc1[N+](=O)[O-] [CB 1954] | 34.24
66 | Clc1nccc2c1ccc1ccccc12 [CBIQ] | 40.45

Same assay, conditions: plate 5 (Pfitzer), test compounds at fixed 20 μM

Row | Structure (SMILES) | Plate 5 (% inhibition) [%]
67 | COc1cc(Nc2c(C#N)cnc3cc(OCCCN4CCN(C)CC4)c(OC)cc23)c(Cl)cc1Cl [Bosutinib] | -77.35

Same assay, conditions: plate 5 (Pfitzer), test compounds at fixed 20 μM; mean conversion DMSO 32.88

Row | Structure (SMILES) | Plate 5 (% conversion) [%]
68 | COc1cc(Nc2c(C#N)cnc3cc(OCCCN4CCN(C)CC4)c(OC)cc23)c(Cl)cc1Cl [Bosutinib] | 62.64

Reference: article PMC7251097, “Aspartate/asparagine-β-hydroxylase: a high-throughput mass spectrometric assay for discovery of small molecule inhibitors” (Scientific Reports, 2020)
